Measurements published in patent publication US4175081A, “5-Substituted thiadiazole ureas” (priority 1977, dated 1979).

Experiments:
Crabgrass (CG) [1] = test: Pre-emergence herbicide test; type: in vivo, Digitaria sanquinalis; settings: Digitaria sanguinalis, pre-emergence, 336 h, two weeks after treatment
Procedure, shortened: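 Crabgrass (Digitaria sanquinalis) was surface seeded in 3' plastic pots of potting soil, covered with screened soil, and watered by sub-irrigation in greenhouse trays. Pots were seeded one day before spraying in a hood with a moving belt and fixed nozzle. Plants stayed in the greenhouse on sub-irrigation, and pre-emergence control was rated visually two weeks after treatment.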

[2] = tested on: Yellow foxtail grass (YF); test: Pre-emergence herbicide test; type: in vivo, Setaria glauca; settings: Setaria, 336 h, two weeks after treatment
Procedure, shortened: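 Seeds surface-sown in potting soil one day before spraying; compounds applied pre-emergence at 8 or 4 lbs/acre in 38 gallons/acre spray. Pots held in greenhouse with sub-irrigation only. Injury or control rated visually two weeks after treatment.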

Johnson grass (JG) [3] = test: Pre-emergence herbicide test; type: in vivo, Sorgum helepense; settings: Sorghum halepense, 336 h, two weeks after treatment
Procedure, shortened: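 Pots seeded one day before spraying; compound applied pre-emergence at 8 lbs/acre (or 4 lbs/acre) in 38 gallons/acre spray volume. Sub-irrigated in greenhouse; injury/control rated visually two weeks after treatment.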

Barnyard grass (BG) [4] = test: Pre-emergence herbicide test; type: in vivo; settings: Echinochloa crus-galli, 336 h, two weeks after treatment
Procedure, shortened: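 Barnyard grass surface-seeded in potting soil and sprayed pre-emergence one day after seeding, at 8 or 4 lb compound/acre in 38 gal/acre spray volume. Pots kept in greenhouse with sub-irrigation only; injury or control rated visually two weeks after treatment.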

Amaranth pigweed (PW) [5] = test: Pre-emergence herbicide test; type: in vivo, Amaranthus retroflexus; settings: 336 h, two weeks after treatment
Procedure, shortened: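 Pigweed was surface-seeded in potted soil one day before spraying at 8 lbs compound per acre, or 4 lbs/acre, in 38 gallons per acre. Pots were kept in the greenhouse with sub-irrigation only; injury or control was rated visually two weeks after treatment.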

Turnip (TP) [6] = test: Pre-emergence herbicide test; type: in vivo, Brassica sp.; settings: Brassica rapa, pre-emergence, 336 h, two weeks after treatment
Procedure, shortened: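 Turnip (Brassica sp.) seeds were surface sown in 3' plastic pots of potting soil, covered with a thin layer of screened soil, and sub-irrigated in greenhouse trays. Pots were seeded one day ahead of treatment, sprayed pre-emergence under a hood with a fixed nozzle and moving belt, then kept in the greenhouse.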

Cotton (CT) [7] = test: Pre-emergence herbicide test; type: in vivo, Gossypium hirsutum var. DPL smooth leaf; settings: Gossypium hirsutum, 336 h, two weeks after treatment
Procedure, shortened: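 Crop and weed species seeded one day before treatment, then sprayed pre-emergence at 8 lbs actual compound per acre (also 4 lbs/acre formulations) in 38 gallons per acre. Pots kept in greenhouse with sub-irrigation only; injury or control visually rated two weeks after treatment.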

Corn (CN) [8] = test: Pre-emergence herbicide test; type: in vivo; settings: Zea mays, 336 h, two weeks after treatment
Procedure, shortened: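 Four corn seeds per pot, sown at seed-diameter depth one day before spraying, got soil surface treatment at 8 lbs/acre (4 lbs/acre formulations also prepared) in 38 gallons/acre. Pots were greenhouse-held with sub-irrigation only. Injury or control was scored visually two weeks after treatment.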

Bean (BN) [9] = test: Pre-emergence herbicide test; type: in vivo, Phaseolus vulgaris var. Black Valentine; settings: Phaseolus vulgaris, 336 h, two weeks after treatment
Procedure, shortened: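 Black Valentine bean was seeded in potting soil one day before spraying. Compound was applied pre-emergence at 8 lbs/acre (also 4 lbs/acre) in 38 gallons per acre. Plants were sub-irrigated and injury or control was rated visually after two weeks.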

Crabgrass (CG) [10] = test: Post-emergence herbicide test; type: in vivo, Digitaria sanquinalis; settings: Digitaria sanguinalis, post-emergence, 336 h, two weeks after treatment
Procedure, shortened: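 Crabgrass (Digitaria sanquinalis) was surface seeded individually in 3' plastic pots of potting soil, covered with screened soil, and watered by sub-irrigation in greenhouse trays. Planting was staggered so seedlings reached the target stage together. Post-emergence sprays were applied in a hood with a removable belt and fixed nozzle, and control was visually rated two weeks after treatment.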

[11] = tested on: Yellow foxtail grass (YF); test: Post-emergence herbicide test; type: in vivo, Setaria glauca; settings: Setaria, 336 h, two weeks after treatment
Procedure, shortened: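 Potted seedlings grown in greenhouse, planting staggered to reach the target stage together, then sprayed post-emergence at 8 lbs actual compound/acre in 38 gallons/acre (4 lbs/acre formulations also prepared). Sub-irrigated afterwards. Injury or control rated visually two weeks after treatment.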

Johnson grass (JG) [12] = test: Post-emergence herbicide test; type: in vivo, Sorgum helepense; settings: Sorghum halepense, 336 h, two weeks after treatment
Procedure, shortened: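 Greenhouse pot-grown seedlings sprayed post-emergence at 8 lbs compound per acre (some at 4 lbs/acre) in 38 gallons per acre spray volume. Sub-irrigated thereafter. Injury/control rated visually two weeks after treatment.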

Barnyard grass (BG) [13] = test: Post-emergence herbicide test; type: in vivo; settings: Echinochloa crus-galli, 336 h, two weeks after treatment
Procedure, shortened: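 Greenhouse pot-grown barnyard grass seedlings sprayed post-emergence at 8 lbs active compound per acre (some at 4 lbs/acre) in 38 gallons per acre, then sub-irrigated. Injury or control rated visually two weeks after treatment.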

Amaranth pigweed (PW) [14] = test: Post-emergence herbicide test; type: in vivo, Amaranthus retroflexus; settings: 336 h, two weeks after treatment
Procedure, shortened: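 Pot-grown pigweed was sprayed post-emergence at the 1–2 true-leaf stage with compound at rates equivalent to 8 lbs per acre (formulations also prepared for 4 lbs/acre) in 38 gallons per acre, using a hood with fixed nozzle. Plants were sub-irrigated in the greenhouse, and injury or control was rated visually two weeks after treatment.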

Turnip (TP) [15] = test: Post-emergence herbicide test; type: in vivo, Brassica sp.; settings: Brassica rapa, post-emergence, 336 h, two weeks after treatment
Procedure, shortened: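 A greenhouse post-emergence herbicide test on turnip. Seeds were sown on the surface of potting soil in 3' plastic pots, lightly covered with screened soil and watered from below. Planting was timed so seedlings had 1 or 2 true leaves above the cotyledons at spraying, done in a hood with a fixed nozzle. Control or injury was scored by eye after two weeks.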

Cotton (CT) [16] = test: Post-emergence herbicide test; type: in vivo, Gossypium hirsutum var. DPL smooth leaf; settings: Gossypium hirsutum, post-emergence, 336 h, two weeks after treatment
Procedure, shortened: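 Cotton (Gossypium hirsutum var. DPL smooth leaf) was grown in 3' plastic pots of potting soil, four seeds per pot, planted at a depth equal to the seed diameter and watered by sub-irrigation. At the stage of expanded cotyledons with the first true leaf 1' long, plants were sprayed post-emergence in a hood with a fixed nozzle over a moving belt. Percent control was rated visually two weeks later.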

Corn (CN) [17] = test: Post-emergence herbicide test; type: in vivo; settings: Zea mays, 336 h, two weeks after treatment
Procedure, shortened: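 Greenhouse seedlings grown in potting soil and sprayed post-emergence at 8 lbs compound/acre (formulations also made for 4 lbs/acre) in 38 gallons/acre spray volume. Watering by sub-irrigation only. Injury or control rated visually two weeks after treatment.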

Bean (BN) [18] = test: Post-emergence herbicide test; type: in vivo, Phaseolus vulgaris var. Black Valentine; settings: Phaseolus vulgaris, post-emergence, 336 h, two weeks after treatment
Procedure, shortened: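 Snapbean (Phaseolus vulgaris var. Black Valentine) was tested post-emergence. Four seeds were sown in 3' plastic pots of potting soil at a depth equal to the seed diameter, then sub-irrigated in greenhouse trays. Planting dates were staggered so plants were sprayed once primary leaves had expanded, with the growing point at the primary leaf nodes.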

CNC(=O)Nc1nnc(S(C)(=O)=O)s1 [Example 33]
50%: pest or weed control at 2241.7 g/ha (Amaranth pigweed (PW) [5]; 2 lb/acre) | pest or weed control at 4483.4 g/ha (Cotton (CT) [7]; 4 lb/acre) | pest or weed control at 8966.8 g/ha (Cotton (CT) [7]; 8 lb/acre) | pest or weed control at 4483.4 g/ha (Johnson grass (JG) [12]; 4 lb/acre) | pest or weed control at 2241.7 g/ha (Amaranth pigweed (PW) [14]; 2 lb/acre)
100%: pest or weed control at 4483.4 g/ha (Turnip (TP) [6]; 4 lb/acre) | pest or weed control at 8966.8 g/ha (Turnip (TP) [6]; 8 lb/acre) | pest or weed control at 2241.7 g/ha (Bean (BN) [9]; 2 lb/acre) | pest or weed control at 4483.4 g/ha ([11]; 4 lb/acre) | pest or weed control at 8966.8 g/ha (Barnyard grass (BG) [13]; 8 lb/acre) | pest or weed control at 4483.4 g/ha (Amaranth pigweed (PW) [14]; 4 lb/acre) | pest or weed control at 8966.8 g/ha (Amaranth pigweed (PW) [14]; 8 lb/acre) | pest or weed control at 8966.8 g/ha (Turnip (TP) [15]; 8 lb/acre) | pest or weed control at 4483.4 g/ha (Cotton (CT) [16]; 4 lb/acre) | pest or weed control at 8966.8 g/ha (Cotton (CT) [16]; 8 lb/acre) | pest or weed control at 8966.8 g/ha (Corn (CN) [17]; 8 lb/acre) | pest or weed control at 2241.7 g/ha (Bean (BN) [18]; 2 lb/acre) | pest or weed control at 4483.4 g/ha (Bean (BN) [18]; 4 lb/acre) | pest or weed control at 8966.8 g/ha (Bean (BN) [18]; 8 lb/acre)
10%: pest or weed control at 4483.4 g/ha (Corn (CN) [17]; 4 lb/acre)
40%: pest or weed control at 2241.7 g/ha (Cotton (CT) [7]; 2 lb/acre) | pest or weed control at 8966.8 g/ha (Johnson grass (JG) [12]; 8 lb/acre) | pest or weed control at 2241.7 g/ha (Cotton (CT) [16]; 2 lb/acre)
60%: pest or weed control at 4483.4 g/ha (Johnson grass (JG) [3]; 4 lb/acre) | pest or weed control at 4483.4 g/ha (Amaranth pigweed (PW) [5]; 4 lb/acre) | pest or weed control at 4483.4 g/ha (Crabgrass (CG) [10]; 4 lb/acre)
90%: pest or weed control (Crabgrass (CG) [1]; 2 lb/acre) | pest or weed control at 4483.4 g/ha (Crabgrass (CG) [1]; 4 lb/acre) | pest or weed control at 8966.8 g/ha (Crabgrass (CG) [1]; 8 lb/acre) | pest or weed control at 4483.4 g/ha ([2]; 4 lb/acre) | pest or weed control at 4483.4 g/ha (Barnyard grass (BG) [4]; 4 lb/acre) | pest or weed control at 2241.7 g/ha (Turnip (TP) [6]; 2 lb/acre) | pest or weed control at 4483.4 g/ha (Bean (BN) [9]; 4 lb/acre) | pest or weed control at 8966.8 g/ha (Bean (BN) [9]; 8 lb/acre) | pest or weed control (Crabgrass (CG) [10]; 2 lb/acre) | pest or weed control at 8966.8 g/ha (Crabgrass (CG) [10]; 8 lb/acre) | pest or weed control at 8966.8 g/ha ([11]; 8 lb/acre) | pest or weed control at 2241.7 g/ha (Turnip (TP) [15]; 2 lb/acre)
70%: pest or weed control at 2241.7 g/ha ([2]; 2 lb/acre) | pest or weed control at 8966.8 g/ha (Johnson grass (JG) [3]; 8 lb/acre) | pest or weed control at 2241.7 g/ha (Barnyard grass (BG) [4]; 2 lb/acre) | pest or weed control at 8966.8 g/ha (Amaranth pigweed (PW) [5]; 8 lb/acre) | pest or weed control at 8966.8 g/ha (Corn (CN) [8]; 8 lb/acre) | pest or weed control ([11]; 2 lb/acre) | pest or weed control at 2241.7 g/ha (Barnyard grass (BG) [13]; 2 lb/acre) | pest or weed control at 4483.4 g/ha (Barnyard grass (BG) [13]; 4 lb/acre)
20%: pest or weed control at 2241.7 g/ha (Corn (CN) [8]; 2 lb/acre) | pest or weed control at 4483.4 g/ha (Corn (CN) [8]; 4 lb/acre) | pest or weed control (Corn (CN) [17]; 2 lb/acre)
80%: pest or weed control at 8966.8 g/ha ([2]; 8 lb/acre) | pest or weed control at 2241.7 g/ha (Johnson grass (JG) [3]; 2 lb/acre) | pest or weed control at 8966.8 g/ha (Barnyard grass (BG) [4]; 8 lb/acre) | pest or weed control (Johnson grass (JG) [12]; 2 lb/acre) | pest or weed control at 4483.4 g/ha (Turnip (TP) [15]; 4 lb/acre)
